Reference: article PMC9959817, “Flow-Based Fmoc-SPPS Preparation and SAR Study of Cathelicidin-PY Reveals Selective Antimicrobial Activity” (Molecules, 2023)
Values after ≈ are worked out from the molar mass of the structure shown. Where a SMILES comes first, the peptide text is derived from it. Bridges are numbered along the chain shown (N, C = ends).

Assays:
Escherichia coli = details: isolation report, assays in Luria Broth (LB); cited from earlier work
Excerpt: (§1) Furthermore, these have shown promising anti-inflammatory and specific immune modulatory capabilities in immunocytes, as well as antiviral activity against human immunodeficiency virus (HIV), influenza A virus (I ...

Staphylococcus aureus = details: isolation report, assays in Luria Broth (LB); cited from earlier work
Excerpt: as §1

Candida albicans = details: isolation report; cited from earlier work
Excerpt: as §1

Pseudomonas aeruginosa = details: isolation report, assays in Luria Broth (LB); cited from earlier work
Excerpt: as §1

S. aureus (ATCC 29213) = experiment: microbe, parasite or virus in culture; assay type: cell-based, Staphylococcus aureus; details: ATCC 29213; read-out: Minimum Inhibitory Concentration
Excerpt: (§2) As we were primarily interested in the clinical potential of cathelicidin-PY (1) and its analogues 2–9, cation-adjusted Mueller-Hinton broth (CAMHB) was implemented during our in vitro antimicrobial screening towards bacteria. However, non-cation adjusted Mueller Hinton broth (MHB) was also implemented to evaluate the cation sensitivity of these AMPs. In each medium, compounds 1–9 were subjected to minimum inhibitory concentration (MIC) assays with E. coli (ATCC 25922), P. aeruginosa (SVB-B9), and S. aureus (ATCC 29213), in accordance with CLSI microbroth dilution protocols (Table 1). It is noteworthy, however, that the initial report of cathelicidin-PY’s isolation documented MIC assays performed in Luria Broth (LB). Furthermore, antifungal activity towards C. albicans was investigated.
Staphylococcus aureus ATCC 29213, Pseudomonas aeruginosa (SVB-B9) (type strain), and Escherichia coli ATCC 25,922 were grown in either non-cation-adjusted or cation-adjusted Mueller Hinton (MH) broth at 37 °C with shaking (200 rpm). MIC assays were performed in technical triplicate in accordance with the CLSI-recommended protocol. All assays were performed independently on three occasions, with the reported MIC defined as the lowest concentration for which agreement was observed consistently for all replicates.

C. albicans (SC5314) = experiment: microbe, parasite or virus in culture; assay type: cell-based, Candida albicans; details: SC5314; read-out: Minimum Inhibitory Concentration
Excerpt: as §2
Antimicrobial susceptibility of Candida albicans SC5314 (type strain) was assessed by broth microdilution in RPMI 1640 media in accordance with the CLSI recommended protocols. All assays were performed independently on three occasions, with the reported MIC defined as the lowest concentration for which agreement was observed consistently for all replicates.

MIC (S. aureus (ATCC 29213)): >64 µM
MIC (C. albicans (SC5314)): >64 µM
SMILES: CC[C@H](C)[C@H](NC(=O)[C@H](Cc1c[nH]cn1)NC(=O)[C@H](CO)NC(=O)[C@@H](NC(=O)[C@@H](NC(=O)[C@@H](NC(=O)[C@@H](NC(=O)[C@H](CCCNC(=N)N)NC(=O)[C@H](CC(C)C)NC(=O)[C@H](CCCCN)NC(=O)[C@H](CCC(=O)O)NC(=O)[C@H](CCCCN)NC(=O)[C@H](CC(C)C)NC(=O)[C@H](CCCCN)NC(=O)[C@@H]1CSSC[C@H](NC(=O)[C@H](CCCCN)NC(=O)[C@@H](N)CCCNC(=N)N)C(=O)N[C@@H](CC(N)=O)C(=O)N[C@@H](Cc2ccccc2)C(=O)N[C@@H](CC(C)C)C(=O)N1)[C@@H](C)O)C(C)C)[C@@H](C)CC)[C@@H](C)O)C(=O)N[C@@H](CC(=O)O)C(=O)N[C@@H](CCCCN)C(=O)N[C@H](C(=O)N[C@@H](CC(C)C)C(=O)N[C@@H](CCCNC(=N)N)C(=O)N1CCC[C@H]1C(=O)N[C@@H](CCC(N)=O)C(=O)NCC(=O)O)C(C)C [Compound 1, Cathelicidin-PY] (H-RKCNFLCKLKEKLRTVITSHIDKVLRPQG-OH; disulfide 3-7)
MIC (Escherichia coli): 1.37 µM (≈ 4.69 µg/mL)
MIC (Staphylococcus aureus): 2.74 µM (≈ 9.38 µg/mL)
MIC (Candida albicans): 1.37 µM (≈ 4.69 µg/mL)
MIC (Pseudomonas aeruginosa): 5.48 µM (≈ 18.8 µg/mL)
